DC50 and Dmax data for nine compounds are collected here from US20260317324A1, “BIFUNCTIONAL COMPOUNDS FOR DEGRADING BRAF VIA UBIQUITIN PROTEOSOME PATHWAY” (Nurix Therapeutics, Inc., priority 2023, published 2026).

Common to all, as to assay type: cell-based
The target in assay [1] is T1, BRAF V600E (Homo sapiens, UniProt P15056, V600E).
T1 construct: endogenous C-terminal HiBiT fusion tag on BRAF V600E allele; endogenous in cells; host or cells: A375 clone 1F10 (CRISPR-Cas9 knock-in of the HiBiT tag; parental A375 from ATCC)
Description: BRAF HiBiT degradation assay, C-terminal HiBiT-tagged BRAF V600E A375 cells (clone 1F10), Nano-Glo HiBiT Lytic assay. As to conditions: for Dmax: A-375. A digest of the protocol:
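Steps: seed HiBiT-tagged A375 clone 1F10 cells; incubate 24 h, 37 °C, 5% CO2; add compound (11 half-log points from 1 μM, 0.2% DMSO); lyse with HiBiT detection reagent plus LgBiT for 10 min; read luminescence; fit % protein remaining against concentration.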
(In general: With HiBiT, luminescence reflects the tagged protein that the partner subunit can reach.)

For assay [2], the target named is T2, BRAF G466V (Homo sapiens, UniProt P15056, G466V).
T2 construct: Horizon Discovery (HCT-116 BRAF−/− cells); host or cells: HCT-116 BRAF−/− cells, clone 8, lentiviral transduction
As to the kind of experiment: BRAF HiBiT degradation assay, C-terminal HiBiT-tagged BRAF G466V overexpressed in HCT-116 BRAF−/− cells (clone 8), Nano-Glo HiBiT Lytic assay. A digest of the protocol: (§1)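 We quantified degradation of the C-terminally HiBiT-tagged, overexpressed mutant by lytic luminescence, normalizing to DMSO-treated cells with wild-type HCT-116 background subtracted. Dose series ran from 1 μM to 0.01 nM at 0.2% DMSO. Observed Dmax is % degraded at maximal effect.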

Assay [3] deals with T3, BRAF D594G (Homo sapiens, UniProt P15056, D594G).
T3 construct: Horizon Discovery (HCT-116 BRAF−/− cells); host or cells: HCT-116 BRAF−/− cells, clone 63, lentiviral transduction
As to the kind of experiment: BRAF HiBiT degradation assay, C-terminal HiBiT-tagged BRAF D594G overexpressed in HCT-116 BRAF−/− cells (clone 63), Nano-Glo HiBiT Lytic assay. A digest of the protocol:
as §1

In assay [4] the target is T4, BRAF G469A (Homo sapiens, UniProt P15056, G469A).
T4 construct: Horizon Discovery (HCT-116 BRAF−/− cells); host or cells: HCT-116 BRAF−/− cells, clone 34, lentiviral transduction
As to the kind of experiment: BRAF HiBiT degradation assay, C-terminal HiBiT-tagged BRAF G469A overexpressed in HCT-116 BRAF−/− cells (clone 34), Nano-Glo HiBiT Lytic assay. A digest of the protocol:
as §1

Where [5] appears, read: A375 (BRAF V600E), DC50 at 50%: fitted conc. at Y=50.
The mark [6] stands for this setting: A375 (BRAF V600E), percentage protein degraded at maximal compound effect relative to DMSO.
Where [7] appears, read: BRAF G466V, DC50 at 50%: fitted conc. at Y=50.
[8] abbreviates: HCT-116, BRAF G466V, percentage protein degraded at maximal compound effect relative to DMSO.
Where [9] appears, read: BRAF D594G, DC50 at 50%: fitted conc. at Y=50.
[10] abbreviates: HCT-116, BRAF D594G, percentage protein degraded at maximal compound effect relative to DMSO.
Where [11] appears, read: Class 2, BRAF G469A, DC50 at 50%: fitted conc. at Y=50.
Setting [12] is: HCT-116, Class 2, BRAF G469A, percentage protein degraded at maximal compound effect relative to DMSO.
Where [13] appears, read: A375 (BRAF V600E, Class 1), DC50 at 50% degradation.
Where [14] appears, read: A375 (BRAF V600E, Class 1), observed Dmax, % protein degraded relative to DMSO control.
Setting [15] is: BRAF G466V (Class 3), HCT-116 BRAF−/− cells, DC50 at 50% degradation.
Where [16] appears, read: BRAF G466V (Class 3), HCT-116 BRAF−/− cells, observed Dmax relative to DMSO control.
[17] abbreviates: BRAF D594G (Class 3), HCT-116 BRAF−/− cells, DC50 at 50% degradation.
Where [18] appears, read: BRAF D594G (Class 3), HCT-116 BRAF−/− cells, observed Dmax relative to DMSO control.
Where [19] appears, read: BRAF G469A (Class 2), HCT-116 BRAF−/− cells, DC50 at 50% degradation.
[20] abbreviates: BRAF G469A (Class 2), HCT-116 BRAF−/− cells, observed Dmax relative to DMSO control.

T3 sequence (P15056 whole entry D594G): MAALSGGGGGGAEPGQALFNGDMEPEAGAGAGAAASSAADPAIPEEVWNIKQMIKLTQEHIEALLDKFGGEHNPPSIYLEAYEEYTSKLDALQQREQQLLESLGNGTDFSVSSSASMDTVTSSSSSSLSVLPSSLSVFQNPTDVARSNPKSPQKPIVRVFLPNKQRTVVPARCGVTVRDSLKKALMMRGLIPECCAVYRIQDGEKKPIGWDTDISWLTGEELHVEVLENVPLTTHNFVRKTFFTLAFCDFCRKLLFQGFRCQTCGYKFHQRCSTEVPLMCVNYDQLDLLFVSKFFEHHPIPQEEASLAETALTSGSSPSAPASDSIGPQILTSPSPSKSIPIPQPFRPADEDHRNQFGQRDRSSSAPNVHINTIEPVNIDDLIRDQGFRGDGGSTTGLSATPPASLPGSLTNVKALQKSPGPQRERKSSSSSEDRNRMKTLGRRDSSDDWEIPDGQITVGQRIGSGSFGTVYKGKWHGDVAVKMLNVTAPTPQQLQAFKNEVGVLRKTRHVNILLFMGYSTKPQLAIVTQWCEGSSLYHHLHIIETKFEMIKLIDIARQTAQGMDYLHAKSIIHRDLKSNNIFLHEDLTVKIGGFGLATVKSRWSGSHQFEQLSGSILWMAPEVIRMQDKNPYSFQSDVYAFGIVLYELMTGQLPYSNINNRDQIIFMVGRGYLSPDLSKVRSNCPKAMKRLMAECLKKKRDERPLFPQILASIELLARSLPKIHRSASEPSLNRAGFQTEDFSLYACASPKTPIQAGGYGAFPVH
T4 sequence (P15056 whole entry G469A): as the sequence (P15056 whole entry D594G) above, with G469A, G594D counted along it
T1 sequence (P15056 whole entry V600E, the tested form may be a part): as the sequence (P15056 whole entry D594G) above, with G594D, V600E counted along it
T2 sequence (P15056 whole entry G466V): as the sequence (P15056 whole entry D594G) above, with G466V, G594D counted along it

The DC50 is the midpoint of the concentration-degradation curve. A low value points to a more potent degrader. A word on the Dmax: it is the greatest extent of degradation seen. Low readings indicate a partial loss of target, high ones a fuller loss of target. In the case of `CCCS(=O)(=O)Nc1cccc(-c2nc(C)sc2-c2ccnc(Nc3ccc(N4CCN(CC5CCN(c6ccc([C@@H]7CCC(=O)NC7=O)cc6)CC5)CC4)cn3)n2)c1F` [Compound 61, N-[3-(5-{2-[(5-{4-[(1-{4-[(3S)-2,6-dioxopiperidin-3-yl]phenyl}piperidin-4-yl)methyl]piperazin-1-yl}pyridin-2-yl)amino]pyrimidin-4-yl}-2-methyl-1,3-thiazol-4-yl)-2-fluorophenyl]propane-1-sulfonamide], the DC50 in assay [1] (setting [5]) was less than 10 nM; in assay [2] (setting [7]) it was more than 500 nM; in assay [3] (setting [9]), more than 500 nM; in assay [4] (setting [11]), less than 10 nM. The Dmax in assay [1] (setting [6]) is more than 70%; in assay [2] (setting [8]), 30 to 70%; in assay [3] (setting [10]), 30 to 70%; in assay [4] (setting [12]) it was 30 to 70%.

Regarding `CCN(C)S(=O)(=O)Nc1cccc(-c2cn(-c3ccc(N4CCN(CC5CCN(c6ccc([C@H]7CCC(=O)NC7=O)cn6)CC5)CC4)cc3F)nc2-c2ccncc2)c1F` [Compound 379, (3R)-3-(6-{4-[(4-{4-[4-(3-{[ethyl(methyl)sulfamoyl]amino}-2-fluorophenyl)-3-(pyridin-4-yl)-1H-pyrazol-1-yl]-3-fluorophenyl}piperazin-1-yl)methyl]piperidin-1-yl}pyridin-3-yl)piperidine-2,6-dione], the half-maximal degradation concentration (DC50) in assay [1] (setting [13]) was 50 to 500 nM; in assay [2] (setting [15]) it was 50 to 500 nM; in assay [3] (setting [17]) it was 50 to 500 nM; in assay [4] (setting [19]), more than 500 nM. The greatest degradation seen (Dmax) in assay [1] (setting [14]) was more than 70%; in assay [2] (setting [16]), 30 to 70%; in assay [3] (setting [18]), 30 to 70%; in assay [4] (setting [20]), 30 to 70%.

For `CCN(C)S(=O)(=O)Nc1cccc(-c2nc(C(C)(C)C)sc2-c2ccnc(Nc3ccc(N4CCN(C(=O)C5(C)CCN(c6ccc(C7CCC(=O)NC7=O)cn6)CC5)CC4)cn3)n2)c1F` (racemic) [Compound 42, Rac-(3S)-3-[6-(4-{4-[6-({4-[2-tert-butyl-4-(3-{[ethyl(methyl)sulfamoyl]amino}-2-fluorophenyl)-1,3-thiazol-5-yl]pyrimidin-2-yl}amino)pyridin-3-yl]piperazine-1-carbonyl}-4-methylpiperidin-1-yl)pyridin-3-yl]piperidine-2,6-dione], the DC50 in assay [1] (setting [5]) was less than 10 nM; in assay [2] (setting [7]) it was more than 500 nM; in assay [3] (setting [9]) it was more than 500 nM; in assay [4] (setting [11]), more than 500 nM. Further, the maximal degradation (Dmax) in assay [1] (setting [6]) is more than 70%; in assay [2] (setting [8]) it was less than 30%; in assay [3] (setting [10]), 30 to 70%; in assay [4] (setting [12]) it was less than 30%.

Turning to `CCCS(=O)(=O)Nc1cccc(-c2cn(-c3ccc(N4CCN(CC5CCN(c6ccc([C@H]7CCC(=O)NC7=O)cc6)CC5)CC4)cc3)nc2-c2ccncc2)c1F` [Compound 16, N-{3-[1-(4-{4-[(1-{4-[(3R)-2,6-dioxopiperidin-3-yl]phenyl}piperidin-4-yl)methyl]piperazin-1-yl}phenyl)-3-(pyridin-4-yl)-1H-pyrazol-4-yl]-2-fluorophenyl}propane-1-sulfonamide], the DC50 in assay [1] (setting [5]) is 10 to 50 nM; in assay [2] (setting [7]), 10 to 50 nM; in assay [3] (setting [9]) it was less than 10 nM; in assay [4] (setting [11]) it was 50 to 500 nM. Further, the Dmax is more than 70% in assay [1] (setting [6]), more than 70% in assay [2] (setting [8]), 30 to 70% in assay [3] (setting [10]) and 30 to 70% in assay [4] (setting [12]).

In the case of `CCN(C)S(=O)(=O)Nc1cccc(-c2nc(C(C)(C)C)sc2-c2ccnc(Nc3ccc(N4CCN(C(=O)[C@H]5CC[C@H](CN6CCc7cc(C8CCC(=O)NC8=O)ccc7C6)CC5)CC4)cn3)n2)c1F` (mixture of isomers) [Compound 125, Rac-(3S)-3-(2-{[(1r,4r)-4-{4-[6-({4-[2-tert-butyl-4-(3-{[ethyl(methyl)sulfamoyl]amino}-2-fluorophenyl)-1,3-thiazol-5-yl]pyrimidin-2-yl}amino)pyridin-3-yl]piperazine-1-carbonyl}cyclohexyl]methyl}-1,2,3,4-tetrahydroisoquinolin-6-yl)piperidine-2,6-dione], the 50% degradation concentration (DC50) in assay [1] (setting [5]) was 10 to 50 nM; in assay [2] (setting [7]), more than 500 nM; in assay [3] (setting [9]), more than 500 nM; in assay [4] (setting [11]) it was more than 500 nM. In addition, the maximal degradation (Dmax) is more than 70% in assay [1] (setting [6]), less than 30% in assay [2] (setting [8]), less than 30% in assay [3] (setting [10]) and 30 to 70% in assay [4] (setting [12]).

Consider `CCCS(=O)(=O)Nc1cccc(-c2nc(C3CCN(C(=O)C4CCN(CC5CCN(c6ccc([C@H]7CCC(=O)NC7=O)cc6)CC5)CC4)CC3)sc2-c2ccnc(NC)n2)c1F` [Compound 204, N-{3-[2-(1-{1-[(1-{4-[(3R)-2,6-dioxopiperidin-3-yl]phenyl}piperidin-4-yl)methyl]piperidine-4-carbonyl}piperidin-4-yl)-5-[2-(methylamino)pyrimidin-4-yl]-1,3-thiazol-4-yl]-2-fluorophenyl}propane-1-sulfonamide], for which the 50% degradation concentration (DC50) in assay [1] (setting [5]) was less than 10 nM; in assay [2] (setting [7]) it was more than 500 nM; in assay [3] (setting [9]), more than 500 nM; in assay [4] (setting [11]), more than 500 nM. Moreover, the maximal degradation (Dmax) in assay [1] (setting [6]) is more than 70%; in assay [2] (setting [8]), 30 to 70%; in assay [3] (setting [10]), 30 to 70%; in assay [4] (setting [12]) it was 30 to 70%.

As for `CCCS(=O)(=O)Nc1cccc(-c2nc(C(C)(C)C)sc2-c2ccnc(Nc3cnn(CC4CCN(C(=O)CN5CCc6cc(C7CCC(=O)NC7=O)ccc6C5)CC4)c3)n2)c1F` (racemic) [Compound 119, Rac-N-[3-(2-tert-butyl-5-{2-[(1-{[1-(2-{6-[(3R)-2,6-dioxopiperidin-3-yl]-1,2,3,4-tetrahydroisoquinolin-2-yl}acetyl)piperidin-4-yl]methyl}-1H-pyrazol-4-yl)amino]pyrimidin-4-yl}-1,3-thiazol-4-yl)-2-fluorophenyl]propane-1-sulfonamide], the DC50 is less than 10 nM in assay [1] (setting [5]), more than 500 nM in assay [2] (setting [7]), more than 500 nM in assay [3] (setting [9]) and more than 500 nM in assay [4] (setting [11]). The Dmax in assay [1] (setting [6]) is more than 70%; in assay [2] (setting [8]), less than 30%; in assay [3] (setting [10]), 30 to 70%; in assay [4] (setting [12]), less than 30%.

Turning to `CCN(C)S(=O)(=O)Nc1cccc(-c2nc(C3CCN(C(=O)C4CCN(C(=O)C5CCN(c6ccc(C7CCC(=O)NC7=O)cn6)CC5)CC4)CC3)sc2-c2ccnc(N)n2)c1F` (racemic) [Compound 209, Rac-(3S)-3-{6-[4-(4-{4-[5-(2-aminopyrimidin-4-yl)-4-(3-{[ethyl(methyl)sulfamoyl]amino}-2-fluorophenyl)-1,3-thiazol-2-yl]piperidine-1-carbonyl}piperidine-1-carbonyl)piperidin-1-yl]pyridin-3-yl}piperidine-2,6-dione], the DC50 in assay [1] (setting [5]) is less than 10 nM; in assay [2] (setting [7]), less than 10 nM; in assay [3] (setting [9]) it was less than 10 nM; in assay [4] (setting [11]), 10 to 50 nM. The Dmax is more than 70% in assay [1] (setting [6]), more than 70% in assay [2] (setting [8]), more than 70% in assay [3] (setting [10]) and 30 to 70% in assay [4] (setting [12]).

In the case of `O=C1CCC(c2ccc(N3CCC(CN4CCN(c5ccc(-n6cc(-c7cc(Cl)cc(NS(=O)(=O)N8CC[C@@H](F)C8)c7F)c(-c7ccncc7)n6)c(F)c5)CC4)CC3)nc2)C(=O)N1` (mixture of isomers) [Compound 335, (3R)—N-{5-chloro-3-[1-(4-{4-[(1-{5-[(3RS)-2,6-dioxopiperidin-3-yl]pyridin-2-yl}piperidin-4-yl)methyl]piperazin-1-yl}-2-fluorophenyl)-3-(pyridin-4-yl)-1H-pyrazol-4-yl]-2-fluorophenyl}-3-fluoropyrrolidine-1-sulfonamide], the DC50 was less than 10 nM in assay [1] (setting [13]), less than 10 nM in assay [2] (setting [15]), less than 10 nM in assay [3] (setting [17]) and 10 to 50 nM in assay [4] (setting [19]). Moreover, the Dmax in assay [1] (setting [14]), in assay [2] (setting [16]), in assay [3] (setting [18]) and in assay [4] (setting [20]) was more than 70% in each case.
